This assay addresses human PAD4 (hPAD4) (Homo sapiens (Human), UniProt Q9UM07). As to the kind of experiment: RFMS Human PAD4 Functional Assay. The format is biochemical. Particulars: rapid-fire mass spectrum (RFMS) assay; 5 nM hPAD4 enzyme, 250 μM BAEE, 30 min preincubation at 37° C.

We go through 23 compounds from US12492202B2, “Macrocyclic PAD4 inhibitors useful as immunosuppressant” (BRISTOL-MYERS SQUIBB COMPANY, priority 2020, dated 2025).

SMILES strings stand for the structures.

The IC50 is the concentration needed to halve the response being measured. Lower therefore signals inhibition by little substance.

Sequence of human PAD4 (hPAD4) (Q9UM07 whole entry): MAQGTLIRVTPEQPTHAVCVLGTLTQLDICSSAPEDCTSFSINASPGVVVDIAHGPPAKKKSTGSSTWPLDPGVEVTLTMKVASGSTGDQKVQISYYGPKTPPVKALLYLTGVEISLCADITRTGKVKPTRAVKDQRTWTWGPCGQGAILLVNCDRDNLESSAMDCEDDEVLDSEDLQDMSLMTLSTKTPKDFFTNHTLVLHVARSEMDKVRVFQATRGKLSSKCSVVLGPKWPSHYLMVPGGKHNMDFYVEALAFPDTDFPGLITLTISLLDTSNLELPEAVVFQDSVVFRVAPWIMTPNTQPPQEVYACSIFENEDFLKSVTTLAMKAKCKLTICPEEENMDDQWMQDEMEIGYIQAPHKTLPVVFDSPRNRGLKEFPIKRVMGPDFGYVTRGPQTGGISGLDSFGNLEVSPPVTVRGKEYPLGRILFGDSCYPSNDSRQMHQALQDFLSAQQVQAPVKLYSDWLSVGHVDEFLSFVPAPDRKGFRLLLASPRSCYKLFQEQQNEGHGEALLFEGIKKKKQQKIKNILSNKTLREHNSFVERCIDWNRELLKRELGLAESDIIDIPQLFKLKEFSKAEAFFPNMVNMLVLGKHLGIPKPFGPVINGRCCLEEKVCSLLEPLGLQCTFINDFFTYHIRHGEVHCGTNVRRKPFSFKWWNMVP
Procedure: RFMS Human PAD4 Functional Assay: Compounds were solubilized in 100% DMSO to achieve a 10 mM compound concentration. Compound stock solutions were stored at RT. A series of dilutions were prepared in DMSO and mixed 8 times with 20 μL mixing volume. Final top concentration of compound in the assay is 50 μM. Final assay conditions were as follows: • Reaction volume: 26 μl • Assay buffer: 25 mM hepes, pH 7.5, 5 mM NaCl, 1 mM DTT, 0.2 mg/ml BSA, 0.01% CHAPS, 50 μM Calcium, and 5 μM TPEN • Final concentrations: 5 nM hPAD4 enzyme, 250 μM BAEE, and 0.5% DMSO • Total incubation time: 30 mins compound and enzyme preincubation at 37° C., 90 min enzyme/substrate reaction, 30 min reaction with phenyl glyoxal at 37° C. • Stop solution: 40 μl 5% TCA in ACN 0.13 μL of compound solution was added to 13 μL of 10 nM PAD4 in assay buffer. After 30 min 13 μl of 500 μM of BAEE was added in 25 mM hepes, pH 7.5, 5 mM NaCl, 1 mM DTT, 0.2 mg/ml BSA, 0.01% CHAPS, 50 μM Calcium, 5 μM TPEN was added and the reaction incubated for 90 min at 37° C. The enzymatic reaction was quenched by addition of 15 μl of 6.1N TCA, 100% Final Concentration is 20%, 35 μl of 8.5 mM phenyl glyoxal (final concentration 4 mM) is then added and the reaction is incubated for 30 min at 37° C. After 30 minutes the plates are spun down to remove all precipitate. The enzyme reaction was quenched with an equal volume of methanol containing internal standard (modified citrulline). Samples were loaded onto the Rapid Fire RF300 system (Agilent) wherein they were first sipped for 1000 ms and then directly loaded to a C18 separations cartridge using a mixture of acetonitrile containing 0.01% formic acid for 3000 ms desalting. The flow rate of the mobile phase was 1.5 ml/min. Once the samples were eluted from the cartridge, a mobile phase of acetonitrile containing 0.01% formic acid was used to move the samples into the mass spectrometer for 4000 ms at a flow rate of 1.25 ml/min/Sciex API5500 triple quadrupole mass spectrometer (Applied Biosystems) equipped with ESI was used to analyze the peptidyl citrulline and internal standard ions. MRM transition of product and internal standard were monitored at m/z 424.5 to 350.4 and m/z 293 to 247 respectively. The dwell time for each transition was set at 200 ms, and the ESI voltage was used at 5500 with a source temperature of 400° C. Extracted ion peaks for each transition were integrated using the Rapid Fire Integrator software. Peak area of analyte was normalized with internal standard).

As to `COc1cc(C(=O)N2CC3CCC2[C@@H]3N)cc2nc3n(c12)Cc1cnn(c1)CCCCCCn1c-3cc2ccccc21` (stereo partly drawn) [Example 12, ((7R)-7-amino-2-azabicyclo[2.2.1]heptan-2-yl)((E)-2^7-methoxy-1^1H,2^1H,4^1H-2(2,1)-benzo[d]imidazola-1(2,1)-indola-4(3,1)-pyrazolacyclodecaphane-2^5-yl)methanone], the IC50 turned out to be 47 nM.
To `COc1cc(C(=O)N2C[C@H](N)C[C@@H](F)C2)cc2nc3n(c12)Cc1cnn(c1)CCCCCCn1c-3cc2ccccc21` [Example 13, ((3R,5R)-3-amino-5-fluoropiperidin-1-yl)((E)-2^7-methoxy-1^1H,2^1H,4^1H-2(2,1)-benzo[d]imidazola-1(2,1)-indola-4(3,1)-pyrazolacyclodecaphane-2^5-yl) methanone] belongs 66 nM.
In turn, `COc1cc(C(=O)N2CC3CCC2[C@@H]3N)cc2nc3n(c12)Cc1cnn(c1)-c1ccccc1OCCCn1c-3cc2ccccc21` (stereo partly drawn) [Example 14, ((7R)-7-amino-2-azabicyclo[2.2.1]heptan-2-yl)((Z)-2^7-methoxy-1^1H,2^1H,4^1H-6-oxa-2(2,1)-benzo[d]imidazola-1(2,1)-indola-4(4,1)-pyrazola-5(1,2)-benzenacyclononaphane-2^5-yl) methanone] returned an IC50 of 11 nM. This IC50 lies about 6-fold lower than the previous one.
The same measure for `COc1cc(C(=O)N2C[C@H](N)C[C@@H](F)C2)cc2nc3n(c12)Cc1cnn(c1)-c1ccccc1OCCCn1c-3cc2cccnc21` [Example 15, ((3R,5R)-3-amino-5-fluoropiperidin-1-yl)((Z)-2^7-methoxy-1^1H,2^1H,4^1H-6-oxa-1,2(2,1)-dipyrrolo[2,3-b]pyridina-4(4,1)-pyrazola-5(1,2)-benzenacyclononaphane-2^5-yl)methanone]: 40 nM; for `COc1cc(C(=O)N2CC3CCC2[C@@H]3N)cc2nc3n(c12)Cc1cnn(c1)-c1ccccc1OCCCn1c-3cc2cccnc21` (stereo partly drawn) [Example 16, ((7R)-7-amino-2-azabicyclo[2.2.1]heptan-2-yl)((Z)-2^7-methoxy-1^1H,2^1H,4^1H-6-oxa-1,2(2,1)-dipyrrolo[2,3-b]pyridina-4(4,1)-pyrazola-5(1,2)-benzenacyclononaphane-2^5-yl)methanone]: 15 nM; for `COc1cc(C(=O)N2CC3CCC2[C@@H]3N)cc2nc3n(c12)Cc1ccn(n1)-c1ccccc1OCCCn1c-3cc2cccnc21` (stereo partly drawn) [Example 17, ((7R)-7-amino-2-azabicyclo[2.2.1]heptan-2-yl)((E)-2^7-methoxy-1^1H,2^1H,4^1H-6-oxa-1,2(2,1)-dipyrrolo[2,3-b]pyridina-4(3,1)-pyrazola-5(1,2)-benzenacyclononaphane-2^5-yl) methanone]: 11 nM.
Regarding `COc1cc(C(=O)N2C[C@H](N)C[C@@H](F)C2)cc2nc3n(c12)Cc1ccn(n1)-c1ccccc1OCCCn1c-3cc2cccnc21` [Example 18, ((3R,5R)-3-amino-5-fluoropiperidin-1-yl)((E)-2^7-methoxy-1^1H,2^1H,4^1H-6-oxa-1,2(2,1)-dipyrrolo[2,3-b]pyridina-4(3,1)-pyrazola-5(1,2)-benzenacyclononaphane-2^5-yl)methanone], the IC50 was 9 nM.
The same measure for `COc1cc(C(=O)N2CC3CCC2[C@@H]3N)cc2nc3n(c12)Cc1ccn(n1)-c1ccccc1OCCCn1c-3cc2ccccc21` (stereo partly drawn) [Example 19, ((7R)-7-amino-2-azabicyclo[2.2.1]heptan-2-yl)((E)-2^7-methoxy-1^1H,2^1H,4^1H-6-oxa-2(2,1)-benzo[d]imidazola-1(2,1)-indola-4(3,1)-pyrazola-5(1,2)-benzenacyclononaphane-2^5-yl)methanone]: 5 nM; for `COc1cc(C(=O)N2C[C@H](N)C[C@@H](F)C2)cc2nc3n(c12)Cc1ccn(n1)-c1ccccc1OCCCn1c-3cc2ccccc21` [Example 20, ((3R,5R)-3-amino-5-fluoropiperidin-1-yl)((E)-2^7-methoxy-1^1H,2^1H,4^1H-6-oxa-2(2,1)-benzo[d]imidazola-l(2,1)-indola-4(3,1)-pyrazola-5(1,2)-benzenacyclononaphane-2^5-yl)methanone]: 13 nM; for `COc1cc(C(=O)N2C[C@H](N)C[C@@H](F)C2)cc2nc3n(c12)Cc1cccc(c1)-c1ccccc1CCCCn1c-3cc2ccccc21` [Example 21, ((3R,5R)-3-amino-5-fluoropiperidin-1l-yl)(2^7-methoxy-1^1IH,2^1H-2(2,1)-benzo[d]imidazola-1(2,1)-indola-4(1,3),5(1,2)-dibenzenacyclononaphane-2^5-yl)methanone]: 191 nM.
For `COc1cc(C(=O)N2CC3CCC2[C@@H]3N)cc2nc3n(c12)Cc1cccc(c1)-c1ccccc1CCCCn1c-3cc2ccccc21` (stereo partly drawn) [Example 22, ((1R,4R,7R)-7-amino-2-azabicyclo[2.2.1]heptan-2-yl)(2^7-methoxy-1^1H,2^1H-2(2,1)-benzo[d]imidazola-1(2,1)-indola-4(1,3),5(1,2)-dibenzenacyclononaphane-2^5-yl)methanone], half-maximal inhibition (IC50) was put at 53 nM.
Take `COc1cc(C(=O)N2C[C@H](N)C[C@@H](F)C2)cc2nc3n(c12)Cc1cccc(c1)-c1ccccc1CCCCn1c-3cc2cccnc21` [Example 23, ((3R,5R)-3-amino-5-fluoropiperidin-1-yl)(2^7-methoxy-1^1H,2^1H,2(2,1)-dipyrrolo[2,3-b]pyridina-4(1,3),5(1,2)-dibenzenacyclononaphane-2^5-yl)methanone]: the IC50 was found to be 109 nM. Compared with the last compound, the IC50 is about 2.1-fold higher.
The same measure for `COc1cc(C(=O)N2C[C@H](N)C[C@@H](F)C2)cc2nc3n(c12)Cc1cc(F)cc(c1)-c1ccccc1CCCCn1c-3cc2cccnc21` [Example 25, ((3R,5R)-3-amino-5-fluoropiperidin-1-yl)(4^5-fluoro-2^7-methoxy-1^1H,2^1H-1,2(2,1)-dipyrrolo[2,3-b]pyridina-4(1,3),5(1,2)-dibenzenacyclononaphane-2^5-yl)methanone]: 31 nM; for `COc1cc(C(=O)N2C[C@H](N)C[C@@H](F)C2)cc2nc3n(c12)Cc1cc(C#N)cc(c1)-c1ccccc1CCCCn1c-3cc2cccnc21` [Example 26, 2^5-((3R,5R)-3-amino-5-fluoropiperidine-1 carbonyl)-2^7-methoxy-1^1H,2^1H-1,2(2,1)-dipyrrolo[2,3-b]pyridina-4(1,3),5(1,2)-dibenzenacyclononaphane-4^5-carbonitrile]: 21 nM; for `COc1cc(C(=O)N2CC3CCC2[C@@H]3N)cc2nc3n(c12)Cc1cc(C#N)cc(c1)-c1ccccc1CCCCn1c-3cc2cccnc21` (stereo partly drawn) [Example 27, 2^5-((1R,4R,7R)-7-amino-2-azabicyclo[2.2.1]heptane-2-carbonyl)-2^7-methoxy-1^1H,2^1H-1,2(2,1)-dipyrrolo[2,3-b]pyridina-4(1,3),5(1,2)-dibenzenacyclononaphane-4^5-carbonitrile]: 49 nM.
With `COc1cc(C(=O)N2C[C@H](N)C[C@@H](F)C2)cc2nc3n(c12)Cc1cc(C(N)=O)cc(c1)-c1ccccc1CCCCn1c-3cc2cccnc21` [Example 28, 2^5-((3R,5R)-3-amino-5-fluoropiperidine-1-carbonyl)-2^7-methoxy-1^1H,2^1H-1,2(2,1)-dipyrrolo[2,3-b]pyridina-4(1,3),5(1,2)-dibenzenacyclononaphane-4^5-carboxamide], the IC50 stood at 62 nM.
The same measure for `COc1cc(C(=O)N2CC3CCC2[C@@H]3N)cc2nc3n(c12)Cc1cc(C(N)=O)cc(c1)-c1ccccc1CCCCn1c-3cc2cccnc21` (stereo partly drawn) [Example 29, 2^5-((1R,4R,7R)-7-amino-2-azabicyclo[2.2.1]heptane-2-carbonyl)-2^7-methoxy-1^1H,2^1H-1,2(2,1)-dipyrrolo[2,3-b]pyridina-4(1,3),5(1,2)-dibenzenacyclononaphane-4^5-carboxamide]: 59 nM; for `COc1cc(C(=O)N2C[C@H](N)C[C@@H](F)C2)cc2nc3n(c12)Cc1cncc(c1)-c1ccccc1CCCCn1c-3cc2cccnc21` [Example 30, ((3R,5R)-3-amino-5-fluoropiperidin-1-yl)(2^7-methoxy-1^1H, 2^1H-1,2(2,1)-dipyrrolo[2,3-b]pyridina-4(3,5)-pyridina-5(1,2)-benzenacyclononaphane-2^5-yl)methanone]: 4 nM.
The same measure for `COc1cc(C(=O)N2CC3CCC2[C@@H]3N)cc2nc3n(c12)Cc1cncc(c1)-c1ccccc1CCCCn1c-3cc2cccnc21` (stereo partly drawn) [Example 31, ((1R,4R,7R)-7-amino-2-azabicyclo[2.2.1]heptan-2-yl)(2^7-methoxy-1^1H,2^1H-1,2(2,1)-dipyrrolo[2,3-b]pyridina-4(3,5)-pyridina-5(1,2)-benzenacyclononaphane-2^5-yl)methanone]: 10 nM.
With `COc1cc(C(=O)N2CC3CCC2[C@@H]3N)cc2nc3n(c12)Cc1cc(ccn1)-c1ccccc1CCCCn1c-3cc2cccnc21` (stereo partly drawn) [Example 32, ((1R,4R,7R)-7-amino-2-azabicyclo[2.2.1]heptan-2-yl)(2^7-methoxy-1^1H,2^1H-1,2(2,1)-dipyrrolo[2,3-b]pyridina-4(2,4)-pyridina-5(1,2)-benzenacyclononaphane-2^5-yl)methanone], the IC50 is 112 nM.
In the case of `COc1cc(C(=O)N2C[C@H](N)C[C@@H](F)C2)cc2nc3n(c12)Cc1cccc(c1)-c1ccccc1OCCCn1c-3cc2cccnc21` [Example 33, ((3R,5R)-3-amino-5-fluoropiperidin-1-yl)(2^7-methoxy-1^1H,2^1H-6-oxa-1,2(2,1)-dipyrrolo[2,3-b]pyridina-4(1,3),5(1,2)-dibenzenacyclononaphane-2^5-yl)methanone], the midpoint of inhibition, the IC50, lay at 120 nM.
As for `COc1cc(C(=O)N2CC3CCC2[C@@H]3N)cc2nc3n(c12)Cc1cccc(c1)-c1ccccc1OCCCn1c-3cc2cccnc21` (stereo partly drawn) [Example 34, ((1R,4R,7R)-7-amino-2-azabicyclo[2.2.1]heptan-2-yl)(2^7-methoxy-1^1H,2^1H-6-oxa-1,2(2,1)-dipyrrolo[2,3-b]pyridina-4(1,3),5(1,2)-dibenzenacyclononaphane-2^5-yl)methanone], the IC50 turned out to be 30 nM. Compared with the last compound, the IC50 is about 4-fold lower.
In the case of `COc1cc(C(=O)N2C[C@H](N)C[C@@H](F)C2)cc2nc3n(c12)Cc1cncc(c1)-c1ccccc1OCCCn1c-3cc2cccnc21` [Example 35, ((3R,5R)-3-amino-5-fluoropiperidin-1-yl)(2^7-methoxy-1^1H,2^1H-6-oxa-1,2(2,1)-dipyrrolo[2,3-b]pyridina-4(3,5)-pyridina-5(1,2)-benzenacyclononaphane-2^5-yl)methanone], it took 14 nM to reach half-maximal inhibition (IC50).
